Results from patent publication US11613522B2, “Herbicidally active 3-phenylisoxazoline-5-carboxamides of tetrahydro- and dihydrofurancarboxamides” (BAYER AKTIENGESELLSCHAFT, priority 2017, dated 2023).

Experiments:
Format in all cases: in vivo
Veronica persica [1] = experiment: Post-emergence herbicidal activity against VERPE; settings: dosage 320 g/ha, rated visually after about 3 weeks; for pest or weed control at 320 g/ha: Veronica persica, 504 h
Procedure: (§1) [table] Seeds of monocotyledonous and dicotyledonous weeds and crop plants are placed in sandy loam in plastic or wood-fiber pots, covered with soil and cultivated in a greenhouse under controlled growth conditions. 2 to 3 weeks after sowing, the test plants are treated at the one-leaf stage. The compounds of the invention, formulated in the form of wettable powders (WP) or as emulsion concentrates (EC), are then sprayed onto the green parts of the plants as aqueous suspension or emulsion with addition of 0.5% additive at a water application rate of 600 l/ha (converted). After the test plants had been kept in the greenhouse under optimum growth conditions for about 3 weeks, the activity of the preparations is rated visually in comparison to untreated controls. For example, 100% activity=the plants have died, 0% activity=like control plants.

Alopecurus myosuroides [2] = experiment: Post-emergence herbicidal activity against ALOMY; settings: dosage 320 g/ha, rated visually after about 3 weeks; for pest or weed control at 320 g/ha: Alopecurus myosuroides, 504 h
Procedure: as §1

Avena fatua [3] = experiment: Post-emergence herbicidal activity against AVEFA; settings: dosage 320 g/ha, rated visually after about 3 weeks; for pest or weed control at 320 g/ha: Avena fatua, 504 h
Procedure: as §1

Veronica persica [4] = experiment: Pre-emergence herbicidal activity against VERPE; settings: Veronica persica, 504 h, dosage 80 g/ha
Text: (§2) 1. Pre-emergence herbicidal action against harmful plants and crop plant compatibility Seeds of monocotyledonous and dicotyledonous weed plants and crop plants are placed in plastic or wood fiber pots and covered with soil. The compounds of the invention, formulated in the form of wettable powders (WP) or as emulsion concentrates (EC), are then applied onto the surface of the covering soil as aqueous suspension or emulsion with addition of 0.5% additive at a water application rate of 600 l/ha (converted). After the treatment, the pots are placed in a greenhouse and kept under good growth conditions for the trial plants. After about 3 weeks, the effect of the preparations is scored visually in comparison with untreated controls as percentages. For example, 100% activity=the plants have died, 0% activity=like control plants. [table]

Pharbitis purpurea = experiment: Post-emergence herbicidal activity against PHBPU; settings: dosage 320 g/ha, rated visually after about 3 weeks; for pest or weed control at 320 g/ha: Ipomoea purpurea, 504 h
Procedure: as §1

Alopecurus myosuroides [5] = experiment: Pre-emergence herbicidal activity against ALOMY; settings: dosage 80 g/ha, scored visually after about 3 weeks vs untreated controls; for pest or weed control at 80 g/ha: Alopecurus myosuroides, 504 h
Text: as §2

Polygonum convolvulus [6] = experiment: Post-emergence herbicidal activity against POLCO; settings: dosage 320 g/ha, rated visually after about 3 weeks; for pest or weed control at 320 g/ha: Fallopia convolvulus, 504 h
Procedure: as §1

Setaria viridis = experiment: Post-emergence herbicidal activity against SETVI; settings: dosage 320 g/ha, rated visually after about 3 weeks; for pest or weed control at 320 g/ha: Setaria viridis, 504 h
Procedure: as §1

Stellaria media [7] = experiment: Post-emergence herbicidal activity against STEME; settings: dosage 320 g/ha, rated visually after about 3 weeks; for pest or weed control at 320 g/ha: Stellaria media, 504 h
Procedure: as §1

Viola tricolor = experiment: Post-emergence herbicidal activity against VIOTR; settings: dosage 320 g/ha, rated visually after about 3 weeks; for pest or weed control at 320 g/ha: Viola tricolor, 504 h
Procedure: as §1

Stellaria media [8] = experiment: Pre-emergence herbicidal activity against STEME; settings: dosage 80 g/ha, scored visually after about 3 weeks vs untreated controls
Text: as §2

Polygonum convolvulus [9] = experiment: Pre-emergence herbicidal activity against POLCO; settings: Fallopia convolvulus, 504 h, dosage 80 g/ha, scored visually after about 3 weeks vs untreated controls
Text: as §2

Amaranthus retroflexus = experiment: Post-emergence herbicidal activity against AMARE; settings: dosage 320 g/ha, rated visually after about 3 weeks; for pest or weed control at 320 g/ha: Amaranthus retroflexus, 504 h
Procedure: as §1

Echinochloa crus-galli = experiment: Post-emergence herbicidal activity against ECHCG; settings: dosage 320 g/ha, rated visually after about 3 weeks; for pest or weed control at 320 g/ha: Echinochloa crus-galli, 504 h
Procedure: as §1

Hordeum murinum = experiment: Post-emergence herbicidal activity against HORMU; settings: dosage 320 g/ha, rated visually after about 3 weeks
Procedure: as §1

Lolium rigidum = experiment: Post-emergence herbicidal activity against LOLRI; settings: dosage 320 g/ha, rated visually after about 3 weeks
Procedure: as §1

Avena fatua [10] = experiment: Pre-emergence herbicidal activity against AVEFA; settings: dosage 80 g/ha, scored visually after about 3 weeks vs untreated controls
Text: as §2

Abutilon theophrasti = experiment: Post-emergence herbicidal activity against ABUTH; settings: dosage 320 g/ha, rated visually after about 3 weeks
Procedure: as §1

Row | SMILES | pest or weed control at 320 g/ha (Veronica persica [1]) [%] | pest or weed control at 320 g/ha (Alopecurus myosuroides [2]) [%] | pest or weed control at 320 g/ha (Avena fatua [3]) [%] | pest or weed control at 320 g/ha (Pharbitis purpurea) [%] | pest or weed control at 320 g/ha (Polygonum convolvulus [6]) [%] | pest or weed control at 320 g/ha (Setaria viridis) [%] | pest or weed control at 320 g/ha (Stellaria media [7]) [%] | Post-emergence herbicidal activity in % against SETVI (Setaria viridis) [%] | Post-emergence herbicidal activity in % against VERPE (Veronica persica [1]) [%] | Post-emergence herbicidal activity in % against ALOMY (Alopecurus myosuroides [2]) [%] | Post-emergence herbicidal activity in % against AVEFA (Avena fatua [3]) [%] | Post-emergence herbicidal activity in % against STEME (Stellaria media [7]) [%] | Post-emergence herbicidal activity in % against VIOTR (Viola tricolor) [%] | Post-emergence herbicidal activity in % against HORMU (Hordeum murinum) [%] | Post-emergence herbicidal activity in % against LOLRI (Lolium rigidum) [%] | Post-emergence herbicidal activity in % against PHBPU (Pharbitis purpurea) [%] | Post-emergence herbicidal activity in % against POLCO (Polygonum convolvulus [6]) [%] | Post-emergence herbicidal activity in % against ECHCG (Echinochloa crus-galli) [%] | further results
1 | CC1(C(=O)NC2COCC2C(=O)NC2CC2)CC(c2cc(F)cc(F)c2)=NO1 (stereo not drawn) [Example I-08, N-[4-(cyclopropylcarbamoyl)tetrahydrofuran-3-yl]-3-(3,5-difluorophenyl)-5-methyl-4H-isoxazole-5-carboxamide] | 80 | 90 | 80 | 80 | 80 | – | – | – | – | – | – | – | – | – | – | – | – | – | pest or weed control at 80 g/ha (Veronica persica [4]): 90%; pest or weed control at 80 g/ha (Alopecurus myosuroides [5]): 90%
2 | CC1(C(=O)N[C@@H]2CO[C@H](C(=O)N3CCCC3)C2)CC(c2cc(F)cc(F)c2)=NO1 (relative stereo) [Example I-03, 3-(3,5-difluorophenyl)-5-methyl-N-[cis-5-(pyrrolidine-1-carbonyl)tetrahydrofuran-3-yl]-4H-isoxazole-5-carboxamide] | 90 | 80 | 90 | 80 | 80 | 90 | 90 | – | – | – | – | – | – | – | – | – | – | – | pest or weed control at 320 g/ha (Viola tricolor): 80%; pest or weed control at 80 g/ha (Stellaria media [8]; Stellaria media, 504 h): 80%; pest or weed control at 80 g/ha (Polygonum convolvulus [9]): 80%; pest or weed control at 320 g/ha (Amaranthus retroflexus): 80%; pest or weed control at 320 g/ha (Echinochloa crus-galli): 80%
3 | C=CC1(C(=O)N[C@@H]2CO[C@H](C(=O)N3CCCC3)C2)CC(c2cc(F)cc(F)c2)=NO1 (relative stereo) [Example I-06, 3-(3,5-difluorophenyl)-N-[cis-5-(pyrrolidin-1-carbonyl)tetrahydrofuran-3-yl]-5-vinyl-4H-isoxazole-5-carboxamide] | 80 | 90 | 90 | 80 | 80 | 80 | 80 | – | – | – | – | – | – | – | – | – | – | – | pest or weed control at 320 g/ha (Amaranthus retroflexus): 80%
4 | CC1(C(=O)N[C@@H]2CO[C@H](C(=O)NC3CC3)C2)CC(c2cc(F)cc(F)c2)=NO1 (relative stereo) [Example I-04, N-[cis-5-(cyclopropylcarbamoyl)tetrahydrofuran-3-yl]-3-(3,5-difluorophenyl)-5-methyl-4H-isoxazole-5-carboxamide] | 80 | 90 | 100 | 80 | 80 | 90 | 80 | – | – | – | – | – | – | – | – | – | – | – | pest or weed control at 320 g/ha (Viola tricolor): 80%; pest or weed control at 80 g/ha (Polygonum convolvulus [9]): 90%; pest or weed control at 80 g/ha (Alopecurus myosuroides [5]): 80%; pest or weed control at 320 g/ha (Echinochloa crus-galli): 80%
5 | C[C@]1(C(=O)N[C@@H]2CO[C@H](C(=O)NCc3ncc(C(F)(F)F)cc3Cl)C2)CC(c2cc(F)cc(F)c2)=NO1 [Example I-27] | – | – | – | – | – | – | – | 80 | 80 | 90 | 100 | 90 | 80 | 100 | 90 | 90 | 80 | 100 | Pre-emergence herbicidal activity in % against STEME (Stellaria media [8]): 90%; Pre-emergence herbicidal activity in % against ALOMY (Alopecurus myosuroides [5]): 90%; Pre-emergence herbicidal activity in % against AVEVA (AVEFA) (Avena fatua [10]): 80%
6 | CCCS(=O)(=O)NC(=O)[C@@H]1C[C@H](NC(=O)[C@@]2(C)CC(c3cc(F)cc(F)c3)=NO2)CO1 [Example I-28] | – | – | – | – | – | – | – | 90 | 90 | 90 | 100 | 90 | 90 | 90 | 100 | 90 | 80 | 90 | Post-emergence herbicidal activity in % against ABUTH (Abutilon theophrasti): 80%; Post-emergence herbicidal activity in % against AMARE (Amaranthus retroflexus): 80%
7 | C=C[C@]1(C(=O)N[C@@H]2CO[C@H](C(=O)NS(=O)(=O)CCC)C2)CC(c2cc(F)cc(F)c2)=NO1 [Example I-29] | – | – | – | – | – | – | – | 90 | 90 | 90 | 90 | 90 | 90 | 90 | 90 | 90 | 90 | 90 | Post-emergence herbicidal activity in % against ABUTH (Abutilon theophrasti): 90%; Post-emergence herbicidal activity in % against AMARE (Amaranthus retroflexus): 90%
